Where two headings read alike, the source gives them in different places.
Tests used:
[1] = Chemical stability in simulated gastric fluid (SGF); assay type: physicochemical; conditions: SGF without enzymes, pH=1,4; 10 µm; 2 hours at 37°C; substance amount in % after thermostatting
Procedure: (§1) Chemical stability of the compounds described herein was determined in simulated gastric fluid and human blood plasma.
SGF concentrate without enzymes, pH=1,4 (Sigma Ireland, cat#01651) was used as simulated gastric fluid. Initial candidate solution (10 mM in DMSO) was diluted with an SGF working solution to a concentration of […] (test solution). The test solution was incubated in a dry block thermostat for 2 hours at 37°C. HPLC with Agilent 1200 liquid chromatography system (Agilent, USA) was employed to determine peak areas of the compounds in test samples, said peak areas corresponding to the initial test time (prior to incubation) and the final test time (after incubation in a dry block thermostat for 2 hours at 37°C). Chromatographic analysis was performed in a gradient elution regime with a flow rate of 1 mL/min. Substance amount in % in a sample after thermostatting was determined.

[2] = Enzyme stability in human liver microsomes; assay type: in vitro ADME; conditions: pH 7.4; 0,5 mg/mL pooled human liver microsomes; 10 µM compound; 37°C; pH=7,4
Procedure: Measuring of candidates' enzyme stability enabled estimation of the stability of the present compounds towards the action of enzymes in liver microsomes.
Enzyme degradation rate was measured by incubating the reaction mixture in a dry block thermostat at 37°C, said reaction mixture comprising 0,5 mg/mL of pooled human liver microsomes (XenoTech, USA, cat#H2620), 10 µM compound, 2 mM β-nicotinamide adenine dinucleotide (Carbosynth, UK, cat#NN10871) and 4 mM magnesium chloride in 0,1 M sodium-phosphate buffer, pH=7,4. The reaction was quenched with acetonitrile (100 µL of acetonitrile / 100 µL of the reaction mixture). After quenching, the samples were centrifuged at 10000 rpm for 10 minutes. Supernatant fluid was tested by chromatographic technique using Agilent1200 (Agilent, USA). Chromatographic analysis was performed in a gradient elution regime with a flow rate of 1 mL/min. A graph of the logarithm of substance's peak area as a function of time was made. The dependent factor of the line corresponded to the elimination rate constant K based on which the drug's half-life t1/2 and degradation rate CLint were calculated: Elimination rate constant (k) = (−gradient) [formula] [formula] V(μL/mg) = (volume of incubation(μL))/(protein in the incubation(mg)) [formula] [formula]

MV4-11 = assay: Cell-based antiproliferative test (AlamarBlue), MV4-11; conditions: 120 h incubation, average values of several tests, read-out: MV-4-11 IC50, mkM
Procedure: (§2) Antiproliferative activity of CDK8 inhibitors according to the present invention was measured in a cell-based test on continuous cell cultures MV4-11 (biphenotypic myelomonocytic leukemia, ATCC® CRL-9591™), KG-1 (acute myeloid leukemia, ATCC® CCL-246™), HL-60 (acute promyelocytic leukemia, ATCC® CCL-240™) using a vital stain AlamarBlue (ThermoFisher, #DAL1100). The cells were grown in RPMI-1640 (PanEco, #C330p) medium with addition of 10% FBS (Gibco, #16140-071); washed and resuspended in culture medium with 10% FBS (Gibco, #16140-071) in 96-well culture plates (Corning, #3599) with ≈ 10 ×10^3 cells in […] of medium per well. The compounds in question were dissolved in DMSO and diluted with a medium with 10% FBS (Gibco, #16140-071) to a final concentration ranging form 0 to 100 µM. […] of diluted compounds were then added to each well (final DMSO concentration was less than 1%) and incubated under 5% CO2 atmosphere at 37°C for 120 h. After incubating, 15 µL of AlamarBlue (ThermoFisher, #DAL1100) reagent was added per well, contents of plates were mixed in an orbital shaker (Biosan, Latvia) and further incubated for 3-5 h at 37°C under 5% CO2 atmosphere. Number of living cells was estimated using a microplate spectrophotometer (Tecan Infinite M200Pro, Switzerland) measuring fluorescent signal at the excitation wavelength (λEx) of 540 nm and emission wavelength (λEm) of 590 nm.
(§3) IC50 was calculated using Magellan 7.2 software (Tecan, Switzerland) approximating experimental points by four-parameter logistic model with the optimization by Levenberg-Marquardt (table 7, table 7).

[3] = Permeability through Caco-2 cell monolayer; assay type: in vitro ADME; conditions: human, Caco-2; for Papp A→B at 2 h, 10 µM: A->B transfer, pH 6.5 -> pH 7.4, 2 hours at 37 °C; for efflux ratio at 2 h, 10 µM: efflux = Papp B-A / Papp A-B
Procedure: Estimation of permeability through Caco-2 cell monolayer enables assessment of the ability of the substances to penetrate through biological membranes by means of both active and passive transport.
Intestinal epithelial cells Caco-2 were grown on filter inserts (pore size 0.4 µm, BD Falcon with High Density) for 21 days; monolayer integrity was then checked using Lucifer Yellow (Sigma-Aldrich, USA) according to the standard protocol. In A->B transfer ("intestinal lumen" - "blood stream" transfer), solutions of the test substances in buffer, pH 6.5 (HBSS, 10 mM HEPES, 15 mM glucose) at a concentration of 10 µM were added to the upper chamber; whereas the lower chamber was filled with buffer, pH 7.4 (HBSS, 10 mM HEPES, 15 mM Glucose, 1% BSA). In B->A transfer ("blood stream" - "intestinal lumen" transfer), the upper chamber was filled with buffer, pH 6.5, whereas the solutions of the test substances in buffer, pH 7.4, at a concentration of 10 µM were added to the lower chamber. A highly permeable substance propranolol was used as a control.
After 2 hours incubation at 37 ° C under an atmosphere containing 5% CO2, the amounts of the test substances in the upper and lower chambers were measured by HPLC using an Agilent1200 HPLC system (Agilent, USA), proteins were preliminarily precipitated with acetonitrile. Chromatographic analysis was performed in a gradient elution regime with a flow rate of 1 mL/min. The peak areas corresponding to the compounds were detected on chromatograms.
The value was calculated using the formula: efflux = Papp B−A /Papp A−B , [formula] where • Papp A-E - the value of permeability direct analysis A→ B; • Papp B-A - the value of the permeability of the reverse analysis B→ A.

[4] = General cytotoxicity test on HepG2 cells; assay type: cell-based; conditions: human, HepG2 cells; 72 h incubation; 200 to 0.78 µM; average values of several tests; read-out: Hep-G2 CC50, mkM
Procedure: Cell viability was assessed using the above method. Table 6. […] The results are presented as average values of activity obtained in several tests.

[5] = Chemical stability in human blood plasma; assay type: in vitro ADME; conditions: pooled human blood plasma; 10 µM; 4 hours at 37°C; substance amount in % after thermostatting
Procedure: as §1
Determination of stability in human blood plasma was performed using pooled human blood plasma taken from ten healthy donors. The initial candidate solution (10 mM in DMSO) was diluted with pooled blood plasma to a concentration of […] (test solution). The test solution was incubated in a dry block thermostat for 4 hours at 37°C. HPLC with Agilent 1200 liquid chromatography system (Agilent, USA) was employed to determine peak areas of the compounds in test samples, said peak areas corresponding to the initial test time (prior to incubation) and the final test time (after incubation in a dry block thermostat for 4 hours at 37°C), proteins were preliminarily precipitated with acetonitrile. Chromatographic analysis was performed in a gradient elution regime with a flow rate of 1 mL/min. Substance amount in % in a sample after thermostatting was determined.

KG-1 = assay: Cell-based antiproliferative test (AlamarBlue), KG-1; conditions: 120 h incubation, average values of several tests, read-out: KG-1 IC50, mkM
Procedure: as §2, §3

Structure (SMILES)	Stability in SGF, % [1]	microsomal CLint at 10 µM [2]	IC50 (MV4-11; Homo sapiens, MV4-11, 120 h)	Papp A→B at 2 h, 10 µM [3]	efflux ratio at 2 h, 10 µM [3]	CC50 at 72 h [4]	Stability in blood plasma, % [5]	IC50 (KG-1; Homo sapiens, KG-1)	IC50 (MV4-11)	IC50 (KG-1)
O=C(c1ccncc1)c1c[nH]c2ncc(-c3ccc(N4CCOCC4)c(O)c3)cc12 [CDK8-4-11, (5-(3-Hydroxy-4-morpholinophenyl)-1H-pyrrolo[2,3-b]pyridin-3-yl) (pyridin-4-yl) methanone]	98.1%	15 µL/min/mg	1330 nM	13.9 ×10⁻⁶ cm/s	1.54	> 200000 nM	88.5%	–	–	–
COC1CN(C(=O)c2cnc3c(N)ncc(-c4ccc(-c5cnn(C)c5)cc4)c3c2)C1 [CDK8-3-34, (8-Amino-5-(4-(1-methyl-1H-pyrazol-4-yl)phenyl)-1,7-naphthyridin-3-yl)(3-methoxyazetidin)methanone]	–	–	–	–	–	–	–	5 nM	–	–
O=C(C1CN(c2cc(F)c3ncn(-c4ccc(-c5cn[nH]c5)cc4)c3c2)C1)N1CCOCC1 [CDK8-1-8, (1-(1-(4-(1H-Pyrazol-4-yl)phenyl)-4-fluoro-1H-benzo[d]imidazol-6-yl)azetidin-3-yl)(morpholino)methanone]	100%	23.4 µL/min/mg	3920 nM	19.7 ×10⁻⁶ cm/s	2.9	> 200000 nM	97.8%	–	–	–
CN1CCN(C(=O)c2cnc3c(N)ncc(-c4ccc(-c5cnn(C)c5)cc4)c3c2)CC1 [CDK8-3-31, (8-Amino-5-(4-(1-methyl-1H-pyrazol-4-yl)phenyl)-1,7-naphthyridin-3-yl)(4-methylpiperazin-1-yl) methanone]	–	–	–	–	–	–	–	2 nM	–	–
COc1ccc(-c2cnc3[nH]cc(C(=O)c4ccncc4)c3c2)cc1 [CDK8-4-33, (5-(4-Methoxyphenyl)-1H-pyrrolo[2,3-b]pyridin-3-yl) (pyridin-4-yl)methanone]	100%	21.2 µL/min/mg	19700 nM	13.4 ×10⁻⁶ cm/s	1.5	> 100000 nM	100%	–	–	–
CN(C)c1ccc(-c2cnc3[nH]cc(C(=O)c4cccnc4)c3c2)cc1O [CDK8-4-5]	99.2%	26.6 µL/min/mg	620 nM	87.6 ×10⁻⁶ cm/s	0.12	7700 nM	100%	–	–	–
O=C(c1ccccn1)c1c[nH]c2ncc(-c3ccc(N4CCOCC4)cc3)cc12 [CDK8-4-36, (5-(4-Morpholinophenyl)-1H-pyrrolo[2,3-b]pyridin-3-yl) (pyridin-2-yl)methanone]	100%	–	460 nM	–	–	17000 nM	100%	1590 nM	–	–
Cn1cc(-c2ccc(-c3cncc4ncc(C(=O)NC5CC5)cc34)cc2)cn1 [CDK8-3-37]	–	–	–	–	–	–	–	–	22 nM	4 nM
COc1cc(-c2cnc3[nH]cc(C(=O)c4ccccn4)c3c2)ccc1N1CCOCC1 [CDK8-4-23, (5-(3-Methoxy-4-morpholinophenyl)-1H-pyrrolo[2,3-b]pyridin-3-yl) (pyridin-2-yl) methanone]	100%	12.8 µL/min/mg	100 nM	36.9 ×10⁻⁶ cm/s	0.14	> 100000 nM	87.4%	–	–	–
O=C(c1cccnc1)c1c[nH]c2ncc(-c3ccc(N4CCOCC4)c(O)c3)cc12 [CDK8-4-7, (5-(3-Hydroxy-4-morpholinophenyl)-1H-pyrrolo[2,3-b]pyridin-3-yl) (pyridin-3-yl) methanone]	99.1%	23.2 µL/min/mg	390 nM	64.5 ×10⁻⁶ cm/s	0.34	> 200000 nM	93.8%	–	–	–
CN1CCN(C(=O)c2cnc3cncc(-c4ccc(N(C)C)cc4)c3c2)CC1 [CDK8-3-8, (5-(4-(Dimethylamino)phenyl)-1,7-naphthyridin-3-yl)(4-methylpiperazin-1-yl) methanone]	95.4%	18 µL/min/mg	7520 nM	–	–	> 200000 nM	98%	–	–	–
Cn1cc(-c2ccc(-c3cnc(N)c4ncc(C(=O)NC5CC5)cc34)cc2)cn1 [CDK8-3-38, 8-Amino-N-cyclopropyl-5-(4-(1-methyl-1H-pyrazol-4-yl)phenyl)-1,7-naphthyridine-3-carboxamide]	–	–	–	–	–	–	–	< 10 nM	–	–
COc1cc(-c2cnc3[nH]cc(C(=O)c4cccnc4)c3c2)ccc1N(C)C [CDK8-4-25, (5-(4-(Dimethylamino)-3-methoxyphenyl)-1H-pyrrolo[2,3-b]pyridin-3-yl)(pyridin-3-yl)methanone]	100%	22.2 µL/min/mg	50 nM	–	–	4700 nM	100%	–	–	–
